Consider seven molecules from patent US11781118B2, “Preparation of L-amino acid deaminase mutant and application thereof” (Jiangnan University, priority 2020, dated 2023).

Data set [1] has as its system CC(C)[C@H](N)C(=O)O. Kind of data set: Kinetic parameters with L-valine as substrate, parent enzyme PmirLAAD WT. In kind it is biochemical, Proteus mirabilis. Particulars: other: L-valine substrate, 25° C., initial rate of α-ketoisovaleric acid. Here is the method:
(§1) In order to evaluate the mutants, kinetic parameters of the mutant parent PmirLAAD^WT and the mutants PmirLAAD^M1, PmirLAAD^M2, PmirLAAD^M3 and PmirLAAD^M4 at 25° C. were determined in the disclosure.
(§2) kcat/Km was calculated based on the initial rate of α-ketoisovaleric acid produced from hydrolyzed L-valine substrates with different concentrations determined at 25° C. Product inhibition of the parent enzyme and the mutants was determined by a product inhibition constant determination experiment in the transformation process. A PmirLAAD^WT parent enzyme strain and mutant strains were respectively added to a reaction solution with the final concentration of wet cells of 10 g/L. 60 mM L-valine was used as the substrate, 10-100 mM α-ketoisovaleric acid was added to the transformation system, the initial reaction rate V0 was determined after about 30 min of reaction, the maximum reaction rate Vmax was determined after about 2 h of reaction, and the product inhibition constant KPI was calculated according to the following formula: […]

The subject of data set [2] is Proteus mirabilis L-amino acid deaminase (PmirLAAD) mutant M4, S98A/T105A/S106A/L341A, SEQ ID NO: 15. Kind of data set: Product inhibition constant determination, mutant M4. Type of data set: biochemical. Here is the method: as §1, §2
(§3) V0: initial reaction rate, Vmax: maximum reaction rate, Km: Michaelis constant, [S]: substrate concentration, [P]: product concentration, KPI: product inhibition constant.

Data set [3] deals with Proteus mirabilis L-amino acid deaminase (PmirLAAD) mutant M3, S98A/T105A/S106A, SEQ ID NO: 13. Kind of data set: Product inhibition constant determination, mutant M3. Type of data set: biochemical. Particulars: M3 relative to WT. Here is the method:
as §1, §2, §3

Data set [4] addresses Proteus mirabilis L-amino acid deaminase (PmirLAAD) mutant M2, S98A/T105A, SEQ ID NO: 11 (Proteus mirabilis, UniProt Q51890, S98A/T105A). Kind of data set: Product inhibition constant determination, mutant M2. Particulars: M2 relative to WT. Type of data set: biochemical. Here is the method: as §1, §2, §3
For data set [5], the target named is Proteus mirabilis L-amino acid deaminase (PmirLAAD), wild-type parent, SEQ ID NO: 1 (Proteus mirabilis, UniProt Q51890). Nature of the data set: Product inhibition constant determination, parent enzyme PmirLAAD WT. In kind it is biochemical. The following applies: relative to WT. Here is the method: as §1, §2, §3
Data set [6] relates to Proteus mirabilis L-amino acid deaminase (PmirLAAD) mutant M1, S98A, SEQ ID NO: 3. Nature of the data set: Product inhibition constant determination, mutant M1. Type of data set: biochemical. The following applies: M1 relative to WT. Here is the method: as §1, §2, §3
In data set [7] the target is Proteus mirabilis L-amino acid deaminase (PmirLAAD) mutant M4, S98A/T105A/S106A/L341A, SEQ ID NO: 15 (Proteus mirabilis, UniProt Q51890, L341A/S106A/S98A/T105A). Nature of the data set: Kinetic parameters with L-valine as substrate, mutant M4. In kind it is biochemical. Particulars: M4 compared with parent enzyme, "increased by", 25° C. Here is the method:
as §1, §2

Data set [8] can be described thus: Shake flask screening of mutants: whole-cell transformation of L-valine, α-ketoisovaleric acid determined by HPLC. In kind it is cell-based, E. coli BL21. The following applies: transformation temperature 25° C., pH 8.0, 24 h. Here is the method: Preparation of sample for determining α-ketoisovaleric acid content by HPLC: 1 mL of a transformed transformation solution is centrifuged at 12000 rpm for 5 min, the supernatant is diluted and filtered through a 0.45 μm filtration membrane, and the filtrate is for liquid chromatography.
Determination of α-ketoisovaleric acid content by HPLC: a waters high performance liquid chromatograph (equipped with a UV-visible detector) and a Bio-Rad Aminex HPX-87H (300×7.8 mm, 9 μm) chromatographic column are used, and the mobile phase is dilute sulfuric acid with the concentration of 2.5 mmol/L. The mobile phase is filtered through a 0.22 μm filtration membrane; the filtrate is subjected to ultrasonic degassing; and detection is performed at the flow rate of 0.6 mL/min, the column temperature of 35° C. and the ultraviolet detection wavelength of 210 nm.
(2) Shake flask screening of single mutants: The obtained 4 mutant strains and a strain containing wild-type L-amino acid deaminase were respectively inoculated into an LB seed medium, and cultured at 200 rpm at 37° C. for about 10 h. The products were respectively inoculated into a shake flask fermentation medium with the inoculum size of 5% of the medium by volume, and cultured at 200 rpm at 37° C. until OD600 was about 0.8. IPTG with the final concentration of 0.04 mmol/L was added for induction, and the induction was performed at 200 rpm at 25° C. for 14 h. The product was centrifuged at 6000 rpm for 8 min to collect bacterial cells. The bacterial cells collected by centrifugation were used for later transformation experiments.
Transformation conditions: transformation temperature 25° C., reaction pH 8.0, and transformation time 24 h.
The yield of α-ketoisovaleric acid of the transformation solution after the completion of the transformation was determined by HPLC. Finally, S98A produced α-ketoisovaleric acid at the highest yield.

Sequence of Proteus mirabilis L-amino acid deaminase (PmirLAAD) mutant M2, S98A/T105A, SEQ ID NO: 11 (Q51890 whole entry S98A/T105A): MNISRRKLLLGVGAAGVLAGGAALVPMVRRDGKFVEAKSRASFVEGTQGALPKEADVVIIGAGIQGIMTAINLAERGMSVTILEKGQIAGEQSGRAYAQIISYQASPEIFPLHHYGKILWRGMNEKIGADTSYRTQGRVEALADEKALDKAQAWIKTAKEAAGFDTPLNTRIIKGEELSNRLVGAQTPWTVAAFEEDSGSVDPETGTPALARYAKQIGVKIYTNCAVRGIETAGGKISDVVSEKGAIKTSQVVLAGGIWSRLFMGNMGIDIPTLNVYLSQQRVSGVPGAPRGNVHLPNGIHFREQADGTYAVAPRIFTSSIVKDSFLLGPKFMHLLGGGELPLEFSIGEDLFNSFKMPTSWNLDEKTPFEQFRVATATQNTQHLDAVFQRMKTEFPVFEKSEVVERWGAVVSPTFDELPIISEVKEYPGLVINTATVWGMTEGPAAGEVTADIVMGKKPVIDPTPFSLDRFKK
Sequence of Proteus mirabilis L-amino acid deaminase (PmirLAAD), wild-type parent, SEQ ID NO: 1 (Q51890 entry or part of it): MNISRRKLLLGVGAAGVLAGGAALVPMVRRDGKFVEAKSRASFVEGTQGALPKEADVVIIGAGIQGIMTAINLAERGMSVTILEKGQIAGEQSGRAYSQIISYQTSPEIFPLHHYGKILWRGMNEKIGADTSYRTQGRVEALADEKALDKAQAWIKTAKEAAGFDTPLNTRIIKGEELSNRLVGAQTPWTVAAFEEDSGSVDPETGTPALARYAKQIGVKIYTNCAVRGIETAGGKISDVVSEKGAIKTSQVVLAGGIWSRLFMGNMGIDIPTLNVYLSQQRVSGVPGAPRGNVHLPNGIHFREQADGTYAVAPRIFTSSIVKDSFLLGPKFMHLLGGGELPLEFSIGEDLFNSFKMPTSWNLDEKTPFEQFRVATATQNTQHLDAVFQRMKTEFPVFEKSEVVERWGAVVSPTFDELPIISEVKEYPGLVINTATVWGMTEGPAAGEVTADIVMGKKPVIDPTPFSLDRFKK
Sequence of Proteus mirabilis L-amino acid deaminase (PmirLAAD) mutant M4, S98A/T105A/S106A/L341A, SEQ ID NO: 15 (Proteus mirabilis, UniProt Q51890, L341A/S106A/S98A/T105A) (Q51890 whole entry S98A/T105A/S106A/L341A): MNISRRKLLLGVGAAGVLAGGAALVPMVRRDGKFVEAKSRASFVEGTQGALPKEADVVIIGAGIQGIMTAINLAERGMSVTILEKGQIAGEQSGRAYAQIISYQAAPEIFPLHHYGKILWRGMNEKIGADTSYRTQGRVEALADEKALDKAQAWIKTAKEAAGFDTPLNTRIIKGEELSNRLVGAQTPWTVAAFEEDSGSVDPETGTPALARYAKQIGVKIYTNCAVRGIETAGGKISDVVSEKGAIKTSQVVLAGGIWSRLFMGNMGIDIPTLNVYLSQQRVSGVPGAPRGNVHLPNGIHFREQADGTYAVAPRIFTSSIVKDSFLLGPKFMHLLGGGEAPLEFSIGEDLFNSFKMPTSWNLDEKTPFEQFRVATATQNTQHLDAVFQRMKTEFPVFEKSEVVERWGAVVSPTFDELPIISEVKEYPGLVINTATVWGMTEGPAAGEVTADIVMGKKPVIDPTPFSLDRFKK

As for “Proteus mirabilis L-amino acid deaminase (PmirLAAD), wild-type parent, SEQ ID NO: 1 (Proteus mirabilis)”, the kcat/Km in data set [1] came out at 4.33 M⁻¹ s⁻¹.

On to `CC(C)C(=O)C(=O)O` [α-ketoisovaleric acid], for which the “increase of product inhibition constant” value in data set [2] (M4 compared with parent enzyme, "increased by") was 5.7 times. In addition, the “Times of change (KPI)” value worked out at 6.7 in data set [2] (M4 relative to WT); 4.6 in data set [3]; 3.9 in data set [4]; 1 in data set [5]; 2.6 in data set [6].

Turning to `CC(C)[C@H](N)C(=O)O` [L-valine], the “increase of kcat/Km (catalytic efficiency)” value in data set [7] is 5.2 times.

B1: PmirLAAD^S98A/T105A/S106A (protein)
chain: MNISRRKLLLGVGAAGVLAGGAALVPMVRRDGKFVEAKSRASFVEGTQGALPKEADVVIIGAGIQGIMTAINLAERGMSVTILEKGQIAGEQSGRAYAQIISYQAAPEIFPLHHYGKILWRGMNEKIGADTSYRTQGRVEALADEKALDKAQAWIKTAKEAAGFDTPLNTRIIKGEELSNRLVGAQTPWTVAAFEEDSGSVDPETGTPALARYAKQIGVKIYTNCAVRGIETAGGKISDVVSEKGAIKTSQVVLAGGIWSRLFMGNMGIDIPTLNVYLSQQRVSGVPGAPRGNVHLPNGIHFREQADGTYAVAPRIFTSSIVKDSFLLGPKFMHLLGGGELPLEFSIGEDLFNSFKMPTSWNLDEKTPFEQFRVATATQNTQHLDAVFQRMKTEFPVFEKSEVVERWGAVVSPTFDELPIISEVKEYPGLVINTATVWGMTEGPAAGEVTADIVMGKKPVIDPTPFSLDRFKK
In turn, B1 returned a α-ketoisovaleric acid in data set [8] of 60.6 g/L.

B2: PmirLAAD^S98A/S106A/L341A (protein)
chain: MNISRRKLLLGVGAAGVLAGGAALVPMVRRDGKFVEAKSRASFVEGTQGALPKEADVVIIGAGIQGIMTAINLAERGMSVTILEKGQIAGEQSGRAYAQIISYQTAPEIFPLHHYGKILWRGMNEKIGADTSYRTQGRVEALADEKALDKAQAWIKTAKEAAGFDTPLNTRIIKGEELSNRLVGAQTPWTVAAFEEDSGSVDPETGTPALARYAKQIGVKIYTNCAVRGIETAGGKISDVVSEKGAIKTSQVVLAGGIWSRLFMGNMGIDIPTLNVYLSQQRVSGVPGAPRGNVHLPNGIHFREQADGTYAVAPRIFTSSIVKDSFLLGPKFMHLLGGGEAPLEFSIGEDLFNSFKMPTSWNLDEKTPFEQFRVATATQNTQHLDAVFQRMKTEFPVFEKSEVVERWGAVVSPTFDELPIISEVKEYPGLVINTATVWGMTEGPAAGEVTADIVMGKKPVIDPTPFSLDRFKK
B2 gave a α-ketoisovaleric acid in data set [8] of 53.5 g/L.

B3: PmirLAAD^S98A/T105A/L341A (protein)
chain: MNISRRKLLLGVGAAGVLAGGAALVPMVRRDGKFVEAKSRASFVEGTQGALPKEADVVIIGAGIQGIMTAINLAERGMSVTILEKGQIAGEQSGRAYAQIISYQASPEIFPLHHYGKILWRGMNEKIGADTSYRTQGRVEALADEKALDKAQAWIKTAKEAAGFDTPLNTRIIKGEELSNRLVGAQTPWTVAAFEEDSGSVDPETGTPALARYAKQIGVKIYTNCAVRGIETAGGKISDVVSEKGAIKTSQVVLAGGIWSRLFMGNMGIDIPTLNVYLSQQRVSGVPGAPRGNVHLPNGIHFREQADGTYAVAPRIFTSSIVKDSFLLGPKFMHLLGGGEAPLEFSIGEDLFNSFKMPTSWNLDEKTPFEQFRVATATQNTQHLDAVFQRMKTEFPVFEKSEVVERWGAVVSPTFDELPIISEVKEYPGLVINTATVWGMTEGPAAGEVTADIVMGKKPVIDPTPFSLDRFKK
As to B3, the α-ketoisovaleric acid in data set [8] worked out at 56.1 g/L.

B4: PmirLAAD^T105A/S106A/L341A (protein)
chain: MNISRRKLLLGVGAAGVLAGGAALVPMVRRDGKFVEAKSRASFVEGTQGALPKEADVVIIGAGIQGIMTAINLAERGMSVTILEKGQIAGEQSGRAYSQIISYQAAPEIFPLHHYGKILWRGMNEKIGADTSYRTQGRVEALADEKALDKAQAWIKTAKEAAGFDTPLNTRIIKGEELSNRLVGAQTPWTVAAFEEDSGSVDPETGTPALARYAKQIGVKIYTNCAVRGIETAGGKISDVVSEKGAIKTSQVVLAGGIWSRLFMGNMGIDIPTLNVYLSQQRVSGVPGAPRGNVHLPNGIHFREQADGTYAVAPRIFTSSIVKDSFLLGPKFMHLLGGGEAPLEFSIGEDLFNSFKMPTSWNLDEKTPFEQFRVATATQNTQHLDAVFQRMKTEFPVFEKSEVVERWGAVVSPTFDELPIISEVKEYPGLVINTATVWGMTEGPAAGEVTADIVMGKKPVIDPTPFSLDRFKK
Regarding B4, the α-ketoisovaleric acid in data set [8] is on record as 59.6 g/L.

The kcat/Km is the second-order rate constant that governs catalysis at low substrate concentration.
